Reference: patent US6486199B1, “Spiro and dispiro 1,2,4-trioxolane antimalarials” (Medicines for Malaria Venture MMV International Centre …, priority 2001, dated 2002)
Marks after values point to notes of the source that are not given here.

Experiments:
P. berghei [1] = experiment: 1-day Peters test against P. berghei in vivo; conditions: for oral activity based on po ED50/ED90 values: ranking among trioxolanes and controls
[2] = system: adult schistosomes (49-day-old) of Schistosoma mansoni; experiment: effect on adult schistosomes (49-day-old) in mice; format: in vivo; conditions: single 400 mg/kg per os
Method: Mice were infected with 100 Schistosoma mansoni cercariae […]. Each group was treated per os with OZ compounds at a single dose of 400 mg/kg. Untreated mice served as the control. All groups were killed 4 weeks after treatment and the liver and intestine were removed and separated. The liver and intestine were compressed and alive male and female worms could be seen and counted.

[3] = differential scanning calorimetry (DSC), thermal stability; format: physicochemical; conditions: thermal decomposition
P. berghei [4] = experiment: 4-day Peters test against P. berghei in vivo; conditions: 4 day
[5] = system: ANKA strain of P. Berghei; experiment: single dose STI in vivo screen in infected Moro SPF mice; conditions: for antimalarial activity, overall assessment: overall judgement of in vitro and in vivo data of Table 2; for Activity (%) po / Activity (%) sc: percent reduction in parasitemia day 3 post-infection; for Activity (%) po / Survival (days) po: single 10 mg/kg po; for Activity (%) sc / Survival (days) sc: single 10 mg/kg sc; for in vivo activity: 10 mg/kg po/sc data of Table 2
Method: In the single dose STI in vivo screen, Moro SPF mice infected with the ANKA strain of P. Berghei (groups of three mice) were treated on day one post-infection with trioxolanes dissolved or suspended in 3% ethanol and 7% Tween 80. […] Antimalarial activity was measured by percent redution in parasitemia on day three post-infection and survival times compared to an untreated control group. Survival to day 30 post-infection is considered to be a cure.

[6] = system: chloroquine-resistant K1 strain of P. falciparum; experiment: in vitro screen against chloroquine-resistant K1 strain of P. falciparum; format: cell-based; conditions: in vitro; for in vitro potency: strains not distinguished

Clc1ccc(C2(c3ccc(Cl)cc3)OOC3(O2)C2CC4CC(C2)CC3C4)cc1 (centres unmarked) [OZ43, Adamantane-2-spiro-3′-5′, 5′-bis(4′-chlorophenyl)-1′,2′,4′-trioxolane]
P. berghei (1 day) ED50 po (P. berghei [1]): 2.1 mg/kg | P. berghei (1 day) ED90 po (P. berghei [1]): 4.0 mg/kg | oral activity based on po ED50/ED90 values (P. berghei [1]): only slightly less orally active than OZ11 | Percentage of dead worm [2]: 0 | Total dead worm [2]: 0 | TWR (%) ([2]; total worm reduction rate): 1.1% | Mean total worm burden ([2]; x ± SD): 35.4 ± 15.8^a | Tm dec. (° C.) [3]: 155.8 °C

O=C1CC2CC3(CC2C1)OOC1(O3)C2CC3CC(C2)CC1C3 (stereo not drawn) [OZ12, Adamantane-2-spiro-3′-1′,2′,4′-trioxolane-5′-spiro-3″-7″-oxo-cis-bicyclo[3.3.0]octane]
P. berghei (4 day) ED50 po (P. berghei [4]): 6.8 mg/kg | P. berghei (4 day) ED90 po (P. berghei [4]): 10.5 mg/kg | P. berghei (4 day) ED50 sc (P. berghei [4]): 0.8 mg/kg | P. berghei (4 day) ED90 sc (P. berghei [4]): 1.4 mg/kg | Tm dec. (° C.) [3]: 149.8 °C

CCCC1CCC2(CC1)OOC1(O2)C2CC3CC(C2)CC1C3 (centres unmarked) [OZ25, Adamantane-2-spiro-3′-8′-propyl-1′,2′,4′-trioxaspiro[4.5]decane]
antimalarial activity, overall assessment [5]: excellent activity | P. berghei (1 day) ED50 po (P. berghei [1]): 1.9 mg/kg | P. berghei (1 day) ED90 po (P. berghei [1]): 3.1 mg/kg | P. berghei (1 day) ED50 sc (P. berghei [1]): 1.7 mg/kg | P. berghei (1 day) ED90 sc (P. berghei [1]): 3.0 mg/kg | oral activity based on po ED50/ED90 values (P. berghei [1]): only slightly less orally active than OZ11 | P. berghei (4 day) ED50 po (P. berghei [4]): 1.2 mg/kg | P. berghei (4 day) ED90 po (P. berghei [4]): 3.7 mg/kg | P. berghei (4 day) ED50 sc (P. berghei [4]): 2.2 mg/kg | P. berghei (4 day) ED90 sc (P. berghei [4]): 3.7 mg/kg | Tm dec. (° C.) [3]: 167.7 °C

c1ccc(C2(c3ccccc3)CCC3(CC2)OOC2(O3)C3CC4CC(C3)CC2C4)cc1 (centres unmarked) [OZ34, Adamantane-2-spiro-3′-8′,8′-diphenyl-1′,2′,4′-trioxaspiro[4.5]decane]
Activity (%) po [5]: 0/0% | Activity (%) sc [5]: 0/0% | Tm dec. (° C.) [3]: 181.4 °C

Fc1ccc(C2CCC3(CC2)OOC2(O3)C3CC4CC(C3)CC2C4)cc1 (centres unmarked) [OZ41, Adamantane-2-spiro-3′-8′-(4′-fluorophenyl)-1′,2′,4′-trioxaspiro[4.5]decane]
P. berghei (1 day) ED50 po (P. berghei [1]): 2.8 mg/kg | P. berghei (1 day) ED90 po (P. berghei [1]): 5.1 mg/kg | Tm dec. (° C.) [3]: 159.0 °C

CC(=O)N1CCC2(CC1)OOC1(O2)C2CC3CC(C2)CC1C3 (centres unmarked) [OZ49, Adamantane-2-spiro-3′-8′-acetyl-1′,2′,4′-trioxa-8′-azaspiro[4.5]decane]
in vitro potency, fold less potent than the analog [6]: 2 fold | Tm dec. (° C.) [3]: 155.7 °C

c1ccc(CON=C2CCC3(CC2)OOC2(O3)C3CC4CC(C3)CC2C4)cc1 (centres unmarked) [OZ19, Adamantane-2-spiro-3′-8′-benzyloxyimino-1′,2′,4′-trioxaspiro[4.5]decane]
in vitro potency, fold less potent than the analog [6]: ~2 fold | P. berghei (1 day) ED50 po (P. berghei [1]): 3.4 mg/kg | P. berghei (1 day) ED90 po (P. berghei [1]): 9.4 mg/kg | P. berghei (1 day) ED50 sc (P. berghei [1]): 1.8 mg/kg | P. berghei (1 day) ED90 sc (P. berghei [1]): 3.6 mg/kg | P. berghei (4 day) ED50 po (P. berghei [4]): <10/>10 mg/kg | P. berghei (4 day) ED90 po (P. berghei [4]): <10/>10 mg/kg | Tm dec. (° C.) [3]: 157.8 °C

O=C(O)CON=C1CCC2(CC1)OOC1(O2)C2CC3CC(C2)CC1C3 (centres unmarked) [OZ54, Adamantane-2-spiro-3′-8′-carboxymethoxyimino-1′,2′,4′-trioxaspiro[4.5]decane]
Survival (days) po [5]: 7.0/7.0 days | Survival (days) sc [5]: 7.0/7.0 days | Tm dec. (° C.) [3]: 149.3 °C

c1ccc(C2CCC3(CC2)OOC2(O3)C3CCCC2CCC3)cc1 (centres unmarked) [OZ67, Bicyclo[3.3.1]nonane-9-spiro-3′-8′-phenyl-1′,2′,4′-trioxaspiro[4.5]decane]
antimalarial activity, overall assessment [5]: completely inactive | Activity (%) po [5]: 0/0% | Activity (%) sc [5]: 0/0% | Survival (days) po [5]: 5.0/5.0 days | Survival (days) sc [5]: 5.0/5.0 days | Tm dec. (° C.) [3]: 162.3 °C

Adamantane-2-spiro-3′-1′,2′,4′-trioxaspiro[4.5]decan-8′-one pyridinioacetylhydrazone chloride [OZ55]
in vitro potency [6]: quite potent | in vivo activity [5]: minimal | Activity (%) po [5]: 45% | Activity (%) sc [5]: 97% | Survival (days) po [5]: 6.0 days | Survival (days) sc [5]: 7.3 days

CC(=O)OC1(c2ccc(F)cc2)CCC2(CC1)OOC1(O2)C2CC3CC(C2)CC1C3 (centres unmarked) [OZ69, Adamantane-2-spiro-3′-8′-acetoxy-8′-(4′-fluorophenyl)-1′,2′,4′-trioxaspiro[4.5]decane]
Survival (days) po [5]: 6.3/6.3 days | Survival (days) sc [5]: 6.3/6.3 days | Tm dec. (° C.) [3]: 164.1 °C

CCN(CC)C(=O)C1CCC2(CC1)OOC1(O2)C2CC3CC(C2)CC1C3 (centres unmarked) [OZ73, Adamantane-2-spiro-3′-8′-diethylaminocarbonyl-1′,2′,4′-trioxaspiro[4.5] decane]
antimalarial activity, overall assessment [5]: only weakly active | Tm dec. (° C.) [3]: 160.2 °C

CCS(=O)(=O)N1CCC2(CC1)OOC1(O2)C2CC3CC(C2)CC1C3 (centres unmarked) [OZ79, Adamantane-2-spiro-3′-8′-ethanesulfonyl-1′,2′,4′-trioxa-8′-azaspiro[4.5]decane]
in vitro potency [6]: very potent | in vivo activity [5]: good | Tm dec. (° C.) [3]: 153.6 °C

CC1(C)COC2(CCC3(CC2)OOC2(O3)C3CCCC2CCC3)OC1 (centres unmarked) [OZ68, Bicyclo[3.3.1]nonane-9-spiro-3′-11′,11′-dimethyl-1′,2′,4′,9′,13′-pentaoxadispiro[4.2.5.2]pentadecane]
antimalarial activity, overall assessment [5]: similarly inactive | Tm dec. (° C.) [3]: 163.1 °C

c1ccc2c(c1)COC1(CCC3(CC1)OOC1(O3)C3CC4CC(C3)CC1C4)OC2 (centres unmarked) [OZ31, Adamantane-2-spiro-3′-11′,12′-benzo-1′,2′,4′, 9′,14′-pentaoxadispiro[4.2.6.2]hexadecane]
Activity (%) po [5]: 99.95/99.95% | Activity (%) sc [5]: 99.95/99.95% | P. berghei (1 day) ED50 po (P. berghei [1]): 1.6 mg/kg | P. berghei (1 day) ED90 po (P. berghei [1]): 3.9 mg/kg | P. berghei (1 day) ED50 sc (P. berghei [1]): 1.1 mg/kg | P. berghei (1 day) ED90 sc (P. berghei [1]): 2.4 mg/kg | Tm dec. (° C.) [3]: 161.1 °C

O=C(c1ccccc1)N1CCC2(CC1)OOC1(O2)C2CC3CC(C2)CC1C3 (centres unmarked) [OZ24, Adamantane-2-spiro-3′-8′-benzoyl-1′,2′,4′-trioxa-8′-azaspiro[4.5]decane]
P. berghei (1 day) ED50 po (P. berghei [1]): 3.9 mg/kg | P. berghei (1 day) ED90 po (P. berghei [1]): 9.0 mg/kg | P. berghei (1 day) ED90 sc (P. berghei [1]): NA/2.1 mg/kg | P. berghei (4 day) ED50 po (P. berghei [4]): <10/>10 mg/kg | P. berghei (4 day) ED90 po (P. berghei [4]): <10/>10 mg/kg | Tm dec. (° C.) [3]: 154.9 °C

COC1(c2ccc(F)cc2)CCC2(CC1)OOC1(O2)C2CC3CC(C2)CC1C3 (centres unmarked) [OZ77, Adamantane-2-spiro-3′-8′-(4′-fluorophenyl)-8′-methoxy-1′,2′,4′-trioxaspiro[4.5]decane]
antimalarial activity, overall assessment [5]: excellent activity | Tm dec. (° C.) [3]: 161.3 °C
